From patent US20210292272A1, “Salts of Zuclomiphene” (Apotex Inc., priority 2020, published 2021)

Experiments:
[1] = PXRD study of crystalline form stability of uncapped samples in a 40° C./75% RH stability chamber; format: physicochemical; settings: at least 4 weeks
Experimental: PXRD diffractograms were recorded on a Bruker-AXS D8 Discover powder X-ray diffractometer (Bruker-AXS, Karlsruhe, Germany). The X-rays were generated using an Incoatec Micro-focus X-ray source (IpSTube: Cu tube with λ=1.54060 Å) with a voltage of 50 kV and current of 1.00 mA, using a micro mask 0.3 mm plug-in pinhole microslit and a short UBC 45 mm long collimator with a 0.3 mm diameter. For each sample, one frame was collected using a still scan with a Pilatus 3R-100K-A area detector at the distance of 154.72 mm from the sample. Raw data were evaluated using the program DIFFRAC.EVA (Bruker-AXS, Karlsruhe, Germany).

[2] = Intrinsic dissolution rate (IDR) measurement, Wood apparatus; format: physicochemical; settings: 900 mL distilled water, 37° C., 50 rpm
Experimental: Intrinsic dissolution rate (IDR) measurements were performed using a Wood apparatus (Pharma Test PT-DT8 instrument) having a bath temperature of 37° C. Samples were prepared by compressing 200-400 mg samples at 1.5 metric tons for 1 minute. A dissolution medium consisting of 900 mL distilled water, and rotation speed of 50 rpm, was used for each experiment.

[3] = system: Men with Prostate Cancer on Androgen Deprivation Therapy; settings: 50 mg of zuclomiphene citrate, interim Phase 2 results; cited from earlier work

| IDR (intrinsic dissolution rate) [2] | Substance | change in the crystalline form (PXRD) [1] | moderate to severe hot flashes, change from baseline [3] |
| --- | --- | --- | --- |
| – | zuclomiphene succinate [zuclomiphene succinate Form APO-I] | no change in the crystalline form occurred | – |
| 3.75 mg min^−1 cm^−2 | zuclomiphene L-malate [zuclomiphene L-malate Form APO-I] | no change in the crystalline form occurred | – |
| – | zuclomiphene tosylate [zuclomiphene tosylate Form APO-I] | no change in the crystalline form occurred | – |
| – | zuclomiphene phosphate [zuclomiphene phosphate Form APO-I] | no change in the crystalline form occurred | – |
| – | zuclomiphene citrate | – | statistically significant decrease |
| – | zuclomiphene fumarate [zuclomiphene fumarate Form APO-I] | no change in the crystalline form occurred | – |
| 2.37 mg min^−1 cm^−2 | zuclomiphene L-tartrate [zuclomiphene L-tartrate Form APO-I] | no change in the crystalline form occurred | – |
| – | zuclomiphene sulphate [zuclomiphene sulphate Form APO-I] | no change in the crystalline form occurred | – |
